Key:
Format in all cases: biochemical
KDR = target: T1, KDR (Homo sapiens, UniProt P35968); test: Inhibitory activity against KDR (VEGF-R2), in vitro data of Examples 170 and 207; settings: 10 μM; Examples 1 to 169; read-out: KDR inhibition at 10 μM
T1 construct: expressed in transfected cells; host or cells: CHO cells
How it was run: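 KDR tyrosine phosphorylation detected by luminescence after overnight 4° C capture of 20 μg lysate protein with PY20:AP antibody. Lysates came from cells given compound for 2 h at 37° C, then final 20 ng/ml VEGF for 5 min; compound-free medium as control.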

Tek = target: T2, Tek (Homo sapiens, UniProt Q02763); test: Recombinant GST-Tek (Tie-2) tyrosine kinase assay (33P into poly(Glu,Tyr)); settings: Examples 1 to 169
T2 construct: amino acids 773-1124 of the cytoplasmic kinase domain of human Tek, N-terminally fused to GST; made in house; host or cells: Sf9 insect cells (baculovirus)
T2 sequence (Q02763 773-1124): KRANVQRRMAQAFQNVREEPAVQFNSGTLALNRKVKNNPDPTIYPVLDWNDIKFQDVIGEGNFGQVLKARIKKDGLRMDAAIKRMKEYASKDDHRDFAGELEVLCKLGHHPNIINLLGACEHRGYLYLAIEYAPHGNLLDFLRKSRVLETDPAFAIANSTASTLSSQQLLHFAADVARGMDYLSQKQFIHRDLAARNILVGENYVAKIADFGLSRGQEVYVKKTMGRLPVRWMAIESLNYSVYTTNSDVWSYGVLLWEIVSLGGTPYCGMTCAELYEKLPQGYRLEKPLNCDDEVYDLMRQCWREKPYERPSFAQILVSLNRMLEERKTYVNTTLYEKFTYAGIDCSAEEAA
How it was run: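 Read-out is filter-bound 33P in poly(Glu,Tyr) 4:1 (10 μg/mL) after 30 min at ambient temperature with 4.0 μM ATP. Enzyme: 150 ng human GST-Tek (aa 773-1124) from insect cells, in Tris pH 7.5 with Mn2+/Mg2+ and vanadate. IC50 fitted linearly over four concentrations, usually 0.01-10 μM.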

FGFR3 (K650E) = target: T3, FGFR3 (K650E) (Homo sapiens, UniProt P22607, K650E); test: Recombinant GST-FGFR-3-K650E tyrosine kinase assay (33P into poly(Glu,Tyr)); settings: 10 μM; Examples 1 to 169; read-out: FGFR3 (K650E) inhibition at 10 μM
T3 construct: amino acids 411-806 of the cytoplasmic domain of human FGFR-3, N-terminally fused to GST; made in house; host or cells: Sf9 insect cells (baculovirus)
T3 sequence (P22607 411-806 K650E): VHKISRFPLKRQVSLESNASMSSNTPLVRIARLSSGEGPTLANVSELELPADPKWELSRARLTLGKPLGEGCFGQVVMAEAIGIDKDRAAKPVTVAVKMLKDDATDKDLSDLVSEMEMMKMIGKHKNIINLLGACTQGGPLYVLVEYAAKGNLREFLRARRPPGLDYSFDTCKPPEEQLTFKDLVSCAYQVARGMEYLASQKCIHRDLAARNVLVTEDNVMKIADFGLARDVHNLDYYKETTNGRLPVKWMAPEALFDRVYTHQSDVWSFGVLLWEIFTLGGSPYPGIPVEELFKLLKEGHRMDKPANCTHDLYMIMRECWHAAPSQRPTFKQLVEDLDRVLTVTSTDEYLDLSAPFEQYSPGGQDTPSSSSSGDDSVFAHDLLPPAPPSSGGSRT

T1 sequence (P35968 20-1356): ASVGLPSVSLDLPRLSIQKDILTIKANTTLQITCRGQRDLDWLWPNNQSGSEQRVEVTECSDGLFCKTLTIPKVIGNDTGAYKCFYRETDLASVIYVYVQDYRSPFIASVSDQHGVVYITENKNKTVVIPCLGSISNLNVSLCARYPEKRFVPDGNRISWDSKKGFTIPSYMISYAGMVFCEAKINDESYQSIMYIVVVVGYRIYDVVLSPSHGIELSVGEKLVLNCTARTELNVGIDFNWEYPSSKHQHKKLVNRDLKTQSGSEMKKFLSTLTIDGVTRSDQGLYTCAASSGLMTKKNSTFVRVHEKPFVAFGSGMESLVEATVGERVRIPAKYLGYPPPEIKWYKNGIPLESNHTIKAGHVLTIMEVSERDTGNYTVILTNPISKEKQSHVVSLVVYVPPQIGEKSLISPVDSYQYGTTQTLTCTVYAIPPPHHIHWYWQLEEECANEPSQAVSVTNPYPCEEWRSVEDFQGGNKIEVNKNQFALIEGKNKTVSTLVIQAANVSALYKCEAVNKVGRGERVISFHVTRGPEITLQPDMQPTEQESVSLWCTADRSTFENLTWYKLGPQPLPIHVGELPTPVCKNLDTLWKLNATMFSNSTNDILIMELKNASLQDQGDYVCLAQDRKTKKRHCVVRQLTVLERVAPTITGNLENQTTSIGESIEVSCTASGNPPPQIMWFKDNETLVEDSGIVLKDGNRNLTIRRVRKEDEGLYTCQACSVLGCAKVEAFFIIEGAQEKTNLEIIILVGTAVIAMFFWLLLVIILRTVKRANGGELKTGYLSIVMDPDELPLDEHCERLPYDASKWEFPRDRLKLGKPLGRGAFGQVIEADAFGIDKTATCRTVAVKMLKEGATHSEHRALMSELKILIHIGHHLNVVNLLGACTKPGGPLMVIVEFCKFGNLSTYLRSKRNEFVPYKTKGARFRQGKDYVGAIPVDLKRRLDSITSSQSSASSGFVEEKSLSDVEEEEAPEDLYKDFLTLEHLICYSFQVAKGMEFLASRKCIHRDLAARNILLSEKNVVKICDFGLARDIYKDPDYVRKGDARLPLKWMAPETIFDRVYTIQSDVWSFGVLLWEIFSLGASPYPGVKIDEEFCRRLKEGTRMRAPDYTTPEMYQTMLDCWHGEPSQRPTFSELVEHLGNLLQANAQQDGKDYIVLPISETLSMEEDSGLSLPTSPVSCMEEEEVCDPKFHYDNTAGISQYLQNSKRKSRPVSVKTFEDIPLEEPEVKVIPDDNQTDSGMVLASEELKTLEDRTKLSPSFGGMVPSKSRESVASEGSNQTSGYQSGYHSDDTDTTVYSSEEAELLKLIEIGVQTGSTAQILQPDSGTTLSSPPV

| inhibition at 10 µM (KDR) | inhibition at 10 µM (Tek) | inhibition at 10 µM (FGFR3 (K650E)) | SMILES |
| --- | --- | --- | --- |
| 67 to 100% | 12 to 100% | 27 to 100% | COc1cc(NC(=O)N(Cc2cccs2)c2cc(Nc3ccc(N4CCN(C)CC4)cc3)ncn2)c(Cl)c(OC)c1 [Example 56, 3-(2-Chloro-3,5-dimethoxy-phenyl)-1-{6-[4-(4-methyl-piperazin-1-yl)-phenylamino]-pyrimidin-4-yl}-1-thiophen-2-ylmethyl-urea] |
| 67 to 100% | 12 to 100% | 27 to 100% | O=C(Nc1cccc(Cl)c1)Nc1cc(Nc2cccc(Cl)c2)ncn1 [Example 135, 1-(3-Chloro-phenyl)-3-[6-(3-chloro-phenylamino)-pyrimidin-4-yl]-urea] |
| 67 to 100% | 12 to 100% | 27 to 100% | CCN1CCN(Cc2ccc(Nc3cc(NC(=O)Nc4c(Cl)c(OC)cc(OC)c4Cl)ncn3)cc2C(F)(F)F)CC1 [Example 168, 1-(2,6-Dichloro-3,5-dimethoxy-phenyl)-3-{6-[4-(4-ethyl-piperazin-1-ylmethyl)-3-trifluoromethyl-phenylamino]-pyrimidin-4-yl}-urea] |
| 67 to 100% | 12 to 100% | 27 to 100% | CCN(CC)c1ccc(Nc2cc(NC(=O)Nc3c(F)cccc3F)ncn2)cc1 [Example 105, 1-[6-(4-Diethylamino-phenylamino)-pyrimidin-4-yl]-3-(2,6-difluoro-phenyl)-urea] |
| 67 to 100% | 12 to 100% | 27 to 100% | CN1CCN(c2ccc(Nc3cc(NC(=O)Nc4cc(Cl)cc(Cl)c4)ncn3)cc2)CC1 [Example 10, 1-(3,5-Dichloro-phenyl)-3-{6-[4-(4-methyl-piperazin-1-yl)-phenylamino]-pyrimidin-4-yl}-urea] |
| 67 to 100% | 12 to 100% | 27 to 100% | COc1cc(NC(=O)Nc2cc(Nc3cccc(Cl)c3)ncn2)cc(OC)c1 [Example 139, 1-[6-(3-Chloro-phenylamino)-pyrimidin-4-yl]-3-(3,5-dimethoxy-phenyl)-urea] |
| 67 to 100% | 12 to 100% | 27 to 100% | O=C(Nc1cc(Nc2cccc(Cl)c2)ncn1)Nc1ccccc1Br [Example 129, 1-(2-Bromo-phenyl)-3-[6-(3-chloro-phenylamino)-pyrimidin-4-yl]-urea] |
| 67 to 100% | 12 to 100% | 27 to 100% | CCN(CC)CCOc1ccc(Nc2cc(NC(=O)Nc3cc(OC)cc(OC)c3Cl)ncn2)cc1 [Example 42, 1-(2-Chloro-3,5-dimethoxy-phenyl)-3-{6-[4-(2-diethylamino-ethoxy)-phenylamino]-pyrimidin-4-yl}-urea] |
| 67 to 100% | 12 to 100% | 27 to 100% | COc1cc(NC(=O)Nc2cc(Nc3ccc(N4CCN(C)CC4)cc3)ncn2)ccc1F [Example 32, 1-(4-Fluoro-3-methoxy-phenyl)-3-{6-[4-(4-methyl-piperazin-1-yl)-phenyl-amino]-pyrimidin-4-yl}-urea] |
| 67 to 100% | 12 to 100% | 27 to 100% | COc1cc(NC(=O)Nc2cc(Nc3ccccc3)ncn2)c(Cl)c(OC)c1 [Example 39, 1-(2-Chloro-3,5-dimethoxy-phenyl)-3-(6-phenylamino-pyrimidin-4-yl)-urea] |
| 67 to 100% | 12 to 100% | 27 to 100% | COc1cc(NC(=O)N(CCc2ccccn2)c2cc(Nc3ccccc3)ncn2)c(Cl)c(OC)c1 [Example 58, 3-(2-Chloro-3,5-dimethoxy-phenyl)-1-(6-phenylamino-pyrimidin-4-yl)-1-(2-pyridin-2-yl-ethyl)-urea] |
| 67 to 100% | 12 to 100% | 27 to 100% | COc1cc(OC)c(Cl)c(NC(=O)N(C)c2cc(Nc3ccc(C)nc3C)ncn2)c1Cl [Example 153, 3-(2,6-Dichloro-3,5-dimethoxy-phenyl)-1-[6-(2,6-dimethyl-pyridin-3-ylamino)-pyrimidin-4-yl]-1-methyl-urea] |
| 67 to 100% | 12 to 100% | 27 to 100% | COc1cccc(NC(=O)Nc2cc(Nc3ccc(N4CCN(C)CC4)cc3)ncn2)c1 [Example 8, 1-(3-Methoxy-phenyl)-3-{6-[4-(4-methyl-piperazin-1-yl)-phenylamino]-py-rimidin-4-yl}-urea] |
| 67 to 100% | 12 to 100% | 27 to 100% | O=C(Nc1cc(Nc2ccc(OCCN3CCOCC3)cc2)ncn1)Nc1ccccc1Cl [Example 142, 1-(2-Chloro-phenyl)-3-{6-[4-(2-morpholin-4-yl-ethoxy)-phenylamino]-pyrimidin-4-yl}-urea] |
| 67 to 100% | 12 to 100% | 27 to 100% | Cc1cc(C)cc(NC(=O)Nc2cc(Nc3ccc(N4CCN(C)CC4)cc3)ncn2)c1 [Example 22, 1-(3,5-Dimethyl-phenyl)-3-{6-[4-(4-methyl-piperazin-1-yl)-phenyl-amino]-pyrimidin-4-yl}-urea] |
| 67 to 100% | 12 to 100% | 27 to 100% | Cc1cccc(Cl)c1NC(=O)Nc1cc(Nc2ccc(N3CCN(C)CC3)cc2)ncn1 [Example 6, 1-(2-Chloro-6-methyl-Phenyl)-3-{6-[4-(4-methyl-piperazin-1-yl)-phenyl-amino]-pyrimidin-4-yl}-urea] |
| 67 to 100% | 12 to 100% | 27 to 100% | CN(C(=O)Nc1c(Cl)cccc1Cl)c1cc(Nc2ccc(N3CCOCC3)cc2)ncn1 [Example 117, 3-(2,6-Dichloro-phenyl)-1-methyl-1-[6-(4-morpholin-4-yl-phenylamino)-pyrimidin-4-yl]-urea] |
| 67 to 100% | 12 to 100% | 27 to 100% | CCN(CC)CCOc1ccc(Nc2cc(N(C)C(=O)Nc3cc(OC)cc(OC)c3Cl)ncn2)cc1 [Example 53, 3-(2-Chloro-3,5-dimethoxy-Phenyl)-1-{6-[4-(2-diethylamino-ethoxy)-phenylamino]-pyrimidin-4-yl}-1-methyl-urea] |
| 67 to 100% | 12 to 100% | 27 to 100% | O=C(Nc1cc(N[C@H]2CC[C@H](O)CC2)ncn1)Nc1c(Cl)cccc1Cl [Example 92, 1-(2,6-Dichloro-phenyl)-3-[6-((trans)-4-hydroxy-cyclohexylamino)-pyrimidin-4-yl]-urea] |
| 67 to 100% | 12 to 100% | 27 to 100% | O=C(Nc1cc(Nc2ccc(F)cc2)ncn1)Nc1c(Cl)cccc1Cl [Example 115, 1-(2,6-Dichloro-phenyl)-3-[6-(4-fluoro-phenylamino)-pyrimidin-4-yl]-urea] |
| 67 to 100% | 12 to 100% | 27 to 100% | CCN(CC)CCOc1ccc(Nc2cc(N(C)C(=O)Nc3c(Cl)c(OC)cc(OC)c3Cl)ncn2)cc1 [Example 152, 3-(2,6-Dichloro-3,5-dimethoxy-phenyl)-1-{6-[4-(2-diethylamino-ethoxy)-phenylamino]-pyrimidin-4-yl}-1-methyl-urea] |
| 67 to 100% | 12 to 100% | 27 to 100% | O=C(Nc1cc(Nc2ccc(OCCN3CCOCC3)cc2)ncn1)Nc1c(Cl)cccc1Cl [Example 96, 1-(2,6-Dichloro-phenyl)-3-{6-[4-(2-morpholin-4-yl-ethoxy)-phenylamino]-pyrimidin-4-yl}-urea] |
| 67 to 100% | 12 to 100% | 27 to 100% | CN1CCN(c2cccc(Nc3cc(NC(=O)Nc4cc(Cl)cc(Cl)c4)ncn3)c2)CC1 [Example 11, 1-(3,5-Dichloro-phenyl)-3-{6-[3-(4-methyl-piperazin-1-yl)-phenylamino]-pyrimidin-4-yl}-urea] |
| 67 to 100% | 12 to 100% | 27 to 100% | CN(C(=O)Nc1c(Cl)cccc1Cl)c1cc(Nc2ccc(F)cc2F)ncn1 [Example 118, 3-(2,6-Dichloro-phenyl)-1-[6-(2,4-difluoro-phenylamino)-pyrimidin-4-yl]-1-methyl-urea] |
| 67 to 100% | 12 to 100% | 27 to 100% | COc1ccc(C)c(NC(=O)Nc2cc(Nc3ccc(N4CCN(C)CC4)cc3)ncn2)c1 [Example 26, 1-(5-Methoxy-2-methyl-phenyl)-3-{6-[4-(4-methyl-piperazin-1-yl)-phenyl-amino]-pyrimidin-4-yl}-urea] |
| 67 to 100% | 12 to 100% | 27 to 100% | CCN1CCN(Cc2ccc(Nc3cc(N(C)C(=O)Nc4c(Cl)c(OC)cc(OC)c4Cl)ncn3)cc2C(F)(F)F)CC1 [Example 169, 3-(2,6-Dichloro-3,5-dimethoxy-phenyl)-1-{6-[4-(4-ethyl-piperazin-1-ylmethyl)-3-trifluoromethyl-phenylamino]-pyrimidin-4-yl}-1-methyl-urea] |
| 67 to 100% | 12 to 100% | 27 to 100% | CN(C(=O)Nc1cccc(C(F)(F)F)c1)c1cc(Nc2ccc(F)cc2)ncn1 [Example 121, 1-[6-(4-Fluoro-phenylamino)-pyrimidin-4-yl]-1-methyl-3-(3-trifluoro-methyl-phenyl)-urea] |
